Experimental data published in article PMC10066365, “Nemacol is a small molecule inhibitor of C. elegans vesicular acetylcholine transporter with anthelmintic potential” (Nature Communications, 2023).
Values joined by “and” are separate entries in the source; they are usually repeats but may differ in a detail not shown here. Identical values can stand only once.

Key:
C. elegans = C. elegans motor phenotype scoring on solid media (Punc/jerky-unc, coiled, paralyzed), wild-type young adults; format: in vivo, Caenorhabditis elegans; settings: for AVERAGES Fraction Coiled / AVERAGES Fraction Paralyzed / AVERAGES Fraction Punc: average of 3 replicates; for C1 (number of animals) / C2 (number of animals) / Fraction Coiled / Fraction Paralyzed / Fraction Punc / NP (number of animals) / P (number of animals) / Punc (number of animals) / Next Day Animals alive (moving fine): single replicate
Pristionchus pacificus = Pristionchus pacificus motor disruption dose-response on solid media, 1 h; settings: for mean % any phene (coiled, jerky-Unc or paralyzed): Pristionchus pacificus young adults, mean of three biological replicates
[1] = 60uM, one hour, young adults, 20 animals per trial, single replicate counts

## O=[N+]([O-])c1ccc(N2CCN(CC3CC=CCC3)CC2)cc1 (stereo not drawn) [Nemacol-4]
C. elegans; 30 μM, 120 min
  AVERAGES Fraction Coiled: 0.0741
  AVERAGES Fraction Paralyzed: 0.0185
  AVERAGES Fraction Punc: 0.5
  C1 (number of animals): 2 and 1
  C2 (number of animals): 0
  Fraction Coiled: 0.111 and 0.0556
  Fraction Paralyzed: 0.0556 and 0.0
  Fraction Punc: 0.556 and 0.5
  NP (number of animals): 5 and 8
  P (number of animals): 1 and 0
  Punc (number of animals): 10 and 9
C. elegans; 30 μM, 240 min
  AVERAGES Fraction Coiled: 0.0
  AVERAGES Fraction Paralyzed: 0.0
  AVERAGES Fraction Punc: 0.333
  C1 (number of animals): 0
  C2 (number of animals): 0
  Fraction Coiled: 0.0
  Fraction Paralyzed: 0.0
  Fraction Punc: 0.333 and 0.222 and 0.444
  NP (number of animals): 12 and 14 and 10
  P (number of animals): 0
  Punc (number of animals): 6 and 4 and 8
C. elegans; 30 μM, 360 min
  AVERAGES Fraction Coiled: 0.0
  AVERAGES Fraction Paralyzed: 0.0
  AVERAGES Fraction Punc: 0.111
  C1 (number of animals): 0
  C2 (number of animals): 0
  Fraction Coiled: 0.0
  Fraction Paralyzed: 0.0
  Fraction Punc: 0.0556 and 0.278 and 0.0
  NP (number of animals): 17 and 13 and 18
  P (number of animals): 0
  Punc (number of animals): 1 and 5 and 0
C. elegans; 30 μM
  Next Day Animals alive (moving fine): alive, recovered
C. elegans; 60 μM, 30 min
  AVERAGES Fraction Coiled: 0.111
  AVERAGES Fraction Paralyzed: 0.0
  AVERAGES Fraction Punc: 0.8
  C1 (number of animals): 1 and 0
  C2 (number of animals): 2 and 1
  Fraction Coiled: 0.167 and 0.0556 and 0.111
  Fraction Paralyzed: 0.0
  Fraction Punc: 0.7 and 0.9
  NP (number of animals): 2 and 4 and 0
  P (number of animals): 0
  Punc (number of animals): 13 and 16
C. elegans; 60 μM, 60 min
  AVERAGES Fraction Coiled: 0.149
  AVERAGES Fraction Paralyzed: 0.037
  AVERAGES Fraction Punc: 0.7
  C1 (number of animals): 2 and 0 and 1
  C2 (number of animals): 2 and 1
  Fraction Coiled: 0.222 and 0.0588 and 0.167
  Fraction Paralyzed: 0.111 and 0.0
  Fraction Punc: 0.667 and 0.7 and 0.8
  NP (number of animals): 0 and 4
  P (number of animals): 2 and 0
  Punc (number of animals): 12 and 15
C. elegans; 60 μM, 90 min
  AVERAGES Fraction Coiled: 0.148
  AVERAGES Fraction Paralyzed: 0.111
  AVERAGES Fraction Punc: 0.741
  C1 (number of animals): 3 and 1 and 0
  C2 (number of animals): 1 and 2
  Fraction Coiled: 0.222 and 0.167 and 0.0556
  Fraction Paralyzed: 0.222 and 0.0556
  Fraction Punc: 0.556 and 0.8 and 0.9
  NP (number of animals): 0
  P (number of animals): 4 and 1
  Punc (number of animals): 10 and 14 and 16
C. elegans; 60 μM, 120 min
  AVERAGES Fraction Coiled: 0.111
  AVERAGES Fraction Paralyzed: 0.037
  AVERAGES Fraction Punc: 0.8
  C1 (number of animals): 1 and 0
  C2 (number of animals): 1 and 2
  Fraction Coiled: 0.111
  Fraction Paralyzed: 0.0556 and 0.0
  Fraction Punc: 0.7 and 0.9 and 0.8
  NP (number of animals): 2 and 0
  P (number of animals): 1 and 0
  Punc (number of animals): 13 and 16 and 15
C. elegans; 60 μM, 240 min
  AVERAGES Fraction Coiled: 0.0
  AVERAGES Fraction Paralyzed: 0.037
  AVERAGES Fraction Punc: 0.5
  C1 (number of animals): 0
  C2 (number of animals): 0
  Fraction Coiled: 0.0
  Fraction Paralyzed: 0.0 and 0.111
  Fraction Punc: 0.4 and 0.333 and 0.7
  NP (number of animals): 11 and 12 and 3
  P (number of animals): 0 and 2
  Punc (number of animals): 7 and 6 and 13
C. elegans; 60 μM, 360 min
  AVERAGES Fraction Coiled: 0.0
  AVERAGES Fraction Paralyzed: 0.0
  AVERAGES Fraction Punc: 0.37
  C1 (number of animals): 0
  C2 (number of animals): 0
  Fraction Coiled: 0.0
  Fraction Paralyzed: 0.0
  Fraction Punc: 0.333 and 0.444
  NP (number of animals): 12 and 10
  P (number of animals): 0
  Punc (number of animals): 6 and 8
C. elegans; 60 μM
  Next Day Animals alive (moving fine): alive, recovered
C. elegans; 60uM, one hour, mean of three biological replicates
  any phene, mean % fraction of young adults exhibiting any phenotype (coiled, jerky-Unc or paralyzed): 94.1667%
C. elegans; [1]
  atypical locomotion (number of animals): 9 and 8 and 13 and 10 and 2 and 3
  coiled (number of animals): 8 and 7 and 3 and 1 and 4 and 5
  no phene (number of animals): 0 and 3 and 4
  paralyzed (number of animals): 3 and 5 and 1 and 14 and 12
C. elegans; Caenorhabditis elegans, 1 h, Fig. 1, dose-response at 60 min, wild-type young adults, +/- 95% CI, read-out: EC50
  EC50: 15 ± 2.3 µM
Pristionchus pacificus; conc 3.75, observed at one hour
  mean % any phene (coiled, jerky-Unc or paralyzed): 0%
Pristionchus pacificus; conc 15, observed at one hour
  mean % any phene (coiled, jerky-Unc or paralyzed): 15.8333%
Pristionchus pacificus; conc 60, observed at one hour
  mean % any phene (coiled, jerky-Unc or paralyzed): 100%
Pristionchus pacificus; Pristionchus pacificus, 1 h, read-out: P. pacificus motor disruption EC50
  EC50: 19.2 µM
